Results published in the supplement of paper PMC8149375.

Experiments:
Conditions in all cases: treatment: drug + dasatinib (fixed dose, not stated); 5 days
[1] = tested on: CAKI-1; assay: AUC of dose-response viability curve, drug + dasatinib, normalised to DMSO (arbitrary (AUC of normalised viability)); higher = less growth inhibition
Experimental: (§1)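 Primary HTS combination arm: 8 RCC cell lines treated with 8 doses (up to 10 uM) of each library drug plus a fixed dose of dasatinib (dose not stated) for 5 days; viability read by CellTiter-Glo and normalised to DMSO. GI50 was fitted with XLfit, AUC is the area under the dose-response curve, and minimum viability is the lowest fraction of DMSO viability across doses.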

[2] = tested on: 769-P; assay: as above
Experimental: as §1

[3] = tested on: 786-O; assay: as above
Experimental: as §1

[4] = tested on: SN12C; assay: as above
Experimental: as §1

[5] = tested on: UO-31; assay: as above
Experimental: as §1

[6] = tested on: A498; assay: as above
Experimental: as §1

[7] = tested on: ACHN; assay: as above
Experimental: as §1

[8] = tested on: TK-10; assay: as above
Experimental: as §1

[9] = tested on: CAKI-1; assay: GI50 of drug in presence of dasatinib; higher = less potent
Experimental: as §1

[10] = tested on: 769-P; assay: as above
Experimental: as §1

[11] = tested on: 786-O; assay: as above
Experimental: as §1

[12] = tested on: SN12C; assay: as above
Experimental: as §1

[13] = tested on: UO-31; assay: as above
Experimental: as §1

[14] = tested on: A498; assay: as above
Experimental: as §1

[15] = tested on: ACHN; assay: as above
Experimental: as §1

[16] = tested on: TK-10; assay: as above
Experimental: as §1

[17] = tested on: CAKI-1; assay: minimum viability across doses, drug + dasatinib, relative to DMSO (fraction); higher = less growth inhibition
Experimental: as §1

[18] = tested on: 769-P; assay: as above
Experimental: as §1

[19] = tested on: 786-O; assay: as above
Experimental: as §1

[20] = tested on: SN12C; assay: as above
Experimental: as §1

[21] = tested on: UO-31; assay: as above
Experimental: as §1

[22] = tested on: A498; assay: as above
Experimental: as §1

[23] = tested on: ACHN; assay: as above
Experimental: as §1

[24] = tested on: TK-10; assay: as above
Experimental: as §1

Compound	AUC of dose-response viability curve [1]	AUC of dose-response viability curve [2]	AUC of dose-response viability curve [3]	AUC of dose-response viability curve [4]	AUC of dose-response viability curve [5]	AUC of dose-response viability curve [6]	AUC of dose-response viability curve [7]	AUC of dose-response viability curve [8]	GI50 of drug [9]	GI50 of drug [10]	GI50 of drug [11]	GI50 of drug [12]	GI50 of drug [13]	GI50 of drug [14]	GI50 of drug [15]	GI50 of drug [16]	minimum viability across doses [17]	minimum viability across doses [18]	minimum viability across doses [19]	minimum viability across doses [20]	minimum viability across doses [21]	minimum viability across doses [22]	minimum viability across doses [23]	minimum viability across doses [24]
O=C(NC1CCNCC1)c1n[nH]cc1NC(=O)c1c(Cl)cccc1Cl [AT7519] + Cc1nc(Nc2ncc(C(=O)Nc3c(C)cccc3Cl)s2)cc(N2CCN(CCO)CC2)n1 [dasatinib]	1.64	2.02	1.52	1.59	2.79	2.2	1.44	2.09	347 nM	1130 nM	218 nM	435 nM	864 nM	337 nM	271 nM	610 nM	0.0385	0.0219	0.00538	0.00559	0.00867	0.00778	0.00318	0.179
Clc1ccc(C2(c3ccc(-c4cn[nH]c4)cc3)CCNCC2)cc1 [AT7867] + Cc1nc(Nc2ncc(C(=O)Nc3c(C)cccc3Cl)s2)cc(N2CCN(CCO)CC2)n1 [dasatinib]	1.96	2.16	1.85	2.43	2.34	3.22	1.69	2.49	762 nM	1690 nM	577 nM	3460 nM	348 nM	8310 nM	530 nM	1970 nM	0.094	0.124	0.00775	0.192	0.00689	0.135	0.0726	0.0469
O=C(Nc1c[nH]nc1-c1nc2cc(CN3CCOCC3)ccc2[nH]1)NC1CC1 [AT9283] + Cc1nc(Nc2ncc(C(=O)Nc3c(C)cccc3Cl)s2)cc(N2CCN(CCO)CC2)n1 [dasatinib]	1.67	1.46	1.19	1.75	1.87	2.4	1.18	1.83	134 nM	128 nM	48.7 nM	672 nM	306 nM	633 nM	48.8 nM	253 nM	0.0645	0.0379	0.00871	0.00616	0.0134	0.0108	0.0114	0.0526
Cc1ccc(NC(=O)c2cccc(C(C)(C)C#N)c2)cc1Nc1ccc2ncn(C)c(=O)c2c1 [AZ628] + Cc1nc(Nc2ncc(C(=O)Nc3c(C)cccc3Cl)s2)cc(N2CCN(CCO)CC2)n1 [dasatinib]	2.08	2.33	2.36	2.33	2.95	3.02	1.59	2.25	1120 nM	2470 nM	> 10000 nM	> 10000 nM	1580 nM	6100 nM	146 nM	1600 nM	0.0806	0.214	0.593	0.348	0.0219	0.409	0.174	0.311
Cc1cc(Nc2nc(N[C@@H](C)c3ccc(F)cc3)c(C#N)cc2F)n[nH]1 [AZ 960] + Cc1nc(Nc2ncc(C(=O)Nc3c(C)cccc3Cl)s2)cc(N2CCN(CCO)CC2)n1 [dasatinib]	1.43	1.77	1.41	1.91	2.11	2.64	1.48	2.17	146 nM	442 nM	197 nM	651 nM	496 nM	987 nM	123 nM	882 nM	0.00482	0.0281	0.00499	0.127	0.0082	0.246	0.0473	0.091
CNC(=O)c1cccc(-c2ccc3c(N4CCOC[C@@H]4C)nc(N4CCOC[C@@H]4C)nc3n2)c1 [AZD2014] + Cc1nc(Nc2ncc(C(=O)Nc3c(C)cccc3Cl)s2)cc(N2CCN(CCO)CC2)n1 [dasatinib]	1.28	1.63	1.33	1.48	2.06	2.2	0.938	1.28	62.1 nM	131 nM	44 nM	88.5 nM	268 nM	430 nM	8.2 nM	64 nM	0.0331	0.0727	0.0164	0.119	0.00563	0.147	0.0544	0.0635
COc1cc(CCc2cc(NC(=O)c3ccc(N4C[C@@H](C)N[C@@H](C)C4)cc3)n[nH]2)cc(OC)c1 [AZD4547] + Cc1nc(Nc2ncc(C(=O)Nc3c(C)cccc3Cl)s2)cc(N2CCN(CCO)CC2)n1 [dasatinib]	1.25	2.51	2.33	1.78	4.54	3.4	1.72	2.37	34 nM	> 10000 nM	3540 nM	201 nM	4240 nM	> 10000 nM	314 nM	3000 nM	0.0512	0.581	0.106	0.061	0.016	0.542	0.14	0.314
Cc1ncc(-c2ccnc(Nc3ccc(S(C)(=O)=O)cc3)n2)n1C(C)C [AZD5438] + Cc1nc(Nc2ncc(C(=O)Nc3c(C)cccc3Cl)s2)cc(N2CCN(CCO)CC2)n1 [dasatinib]	1.65	1.82	1.3	2.05	2.05	2.78	1.46	2.02	238 nM	474 nM	128 nM	1760 nM	367 nM	1550 nM	246 nM	529 nM	0.0627	0.0188	0.00349	0.0122	0.00804	0.0116	0.0173	0.127
NC(=O)Nc1cc(-c2cccc(F)c2)sc1C(=O)N[C@H]1CCCNC1 [AZD7762] + Cc1nc(Nc2ncc(C(=O)Nc3c(C)cccc3Cl)s2)cc(N2CCN(CCO)CC2)n1 [dasatinib]	1.19	1.32	0.834	1.56	2.04	2.29	0.645	1.26	59.1 nM	52.4 nM	25 nM	315 nM	99.7 nM	261 nM	5.85 nM	59.6 nM	0.00368	0.0473	0.00579	0.00591	0.0113	0.0562	0.0359	0.0198
COc1ccc(-c2ccc3c(N4CCOC[C@@H]4C)nc(N4CCOC[C@@H]4C)nc3n2)cc1CO [AZD8055] + Cc1nc(Nc2ncc(C(=O)Nc3c(C)cccc3Cl)s2)cc(N2CCN(CCO)CC2)n1 [dasatinib]	0.988	1.22	0.846	1.3	1.29	1.68	0.585	1.21	24 nM	59.9 nM	7.26 nM	39.8 nM	65.2 nM	100 nM	< 3 nM	36.9 nM	0.0255	0.0691	0.018	0.135	0.00778	0.182	0.044	0.053
CN(C)C/C=C/C(=O)Nc1cc2c(Nc3ccc(F)c(Cl)c3)ncnc2cc1O[C@H]1CCOC1 [Afatinib (BIBW2992)] + Cc1nc(Nc2ncc(C(=O)Nc3c(C)cccc3Cl)s2)cc(N2CCN(CCO)CC2)n1 [dasatinib]	1.57	1.31	1.92	2.02	1.88	2.54	1.02	1.58	241 nM	29.1 nM	953 nM	2300 nM	885 nM	1490 nM	4.16 nM	72.5 nM	0.0121	0.0233	0.00818	0.0274	0.00619	0.00955	0.00184	0.0817
S=C(NCc1ccc2c(c1)OCO2)N1CCN(c2ncnc3c2oc2ccccc23)CC1 [Amuvatinib (MP-470)] + Cc1nc(Nc2ncc(C(=O)Nc3c(C)cccc3Cl)s2)cc(N2CCN(CCO)CC2)n1 [dasatinib]	2.31	2.2	1.94	2.03	3.23	3.02	1.9	2.39	> 10000 nM	1830 nM	1310 nM	1970 nM	2680 nM	4380 nM	1390 nM	2920 nM	0.57	0.282	0.0475	0.0599	0.0639	0.245	0.156	0.263
S=C(NCc1ccc2c(c1)OCO2)N1CCN(c2ncnc3c2oc2ccccc23)CC1 [Amuvatinib (MP-470)_R2] + Cc1nc(Nc2ncc(C(=O)Nc3c(C)cccc3Cl)s2)cc(N2CCN(CCO)CC2)n1 [dasatinib]	2.48	2.38	1.87	2.06	3.36	2.86	1.85	2.24	> 10000 nM	2550 nM	1240 nM	1630 nM	2840 nM	3370 nM	1230 nM	2640 nM	0.583	0.219	0.0149	0.0319	0.0367	0.251	0.17	0.26
CS(=O)(=O)O.N#CC1(c2ccc(NC(=O)c3cccnc3NCc3ccncc3)cc2)CCCC1 [Apatinib (YN968D1)] + Cc1nc(Nc2ncc(C(=O)Nc3c(C)cccc3Cl)s2)cc(N2CCN(CCO)CC2)n1 [dasatinib]	2.39	2.43	2.64	2.45	4.78	3.76	2.18	2.5	> 10000 nM	9470 nM	> 10000 nM	> 10000 nM	> 10000 nM	> 10000 nM	6530 nM	> 10000 nM	0.572	0.49	0.624	0.656	0.988	0.874	0.389	0.636
